Measured values: patent US9302999B2, “Substituted triazoles as herbicides” (E. I. DU PONT DE NEMOURS AND COMPANY, priority 2012, dated 2016)

Assays:
Format in all cases: in vivo
[1] = test system: barnyardgrass (Echinochloa crus-galli); assay: Test A pre-/postemergence: barnyardgrass
Method in brief: (§1)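 Each species received preemergence soil-directed spraying and, at the same time, postemergence treatment of seedlings 2–10 cm tall. Formulation: non-phytotoxic solvent mixture including surfactant. Response assessed visually about ten days on, relative to untreated controls, 0–100 scale.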

[2] = test system: velvetleaf (Abutilon theophrasti); assay: Test A pre-/postemergence: velvetleaf; settings: for Velvetleaf plant response rating: visual rating on 0 to 100 scale (0 no effect, 100 complete control), approximately ten days
Method in brief: as §1

corn (Zea mays) = assay: Test A pre-/postemergence: corn
Method in brief: as §1

rice (Oryza sativa) = assay: Test B flooded paddy: rice; settings: Flood; 250 g ai/ha; applied to paddy water at 2-leaf stage; visually evaluated after 13 to 15 days
Method in brief: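 Flooded-pot test: compound dosed into 3 cm of standing water above soil when plants had two leaves. Visual control ratings (0–100) versus untreated plants after 13–15 d.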

[3] = test system: blackgrass (Alopecurus myosuroides); assay: Test C pre-/postemergence: blackgrass
Method in brief: (§2)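 Preemergence on seeds in loam/sand, postemergence on 2–18 cm (1–4-leaf) plants in peat-based medium; compounds in non-phytotoxic solvent with surfactant. After 13–15 days in greenhouse, visual rating versus controls, 0 (no effect) to 100 (complete control).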

[4] = test system: winter wheat (Triticum aestivum); assay: Test C pre-/postemergence: winter wheat
Method in brief: as §2

wild oat (Avena fatua) = assay: Test C pre-/postemergence: wild oat
Method in brief: as §2

[5] = test system: johnsongrass (Sorghum halepense); assay: Test C pre-/postemergence: johnsongrass
Method in brief: as §2

[6] = test system: pigweed (Amaranthus retroflexus); assay: Test C pre-/postemergence: pigweed
Method in brief: as §2

[7] = test system: chickweed (common chickweed, Stellaria media); assay: Test C postemergence: chickweed
Method in brief: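 Crop and weed plants were grown in peat-vermiculite medium and treated postemergence at the 1- to 4-leaf stage (2-18 cm tall). After 13-15 days in a greenhouse, each species was rated visually against untreated controls on a 0-100 scale (0 no effect, 100 complete control).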

[8] = Postemergence, 125 g ai/ha, 0 to 100 scale, 0 is no effect, 100 is complete control
[9] = Postemergence, 500 g ai/ha, visual rating on 0 to 100 scale (0 no effect, 100 complete control), approximately ten days
[10] = Preemergence, 125 g ai/ha, 0 to 100 scale where 0 is no effect and 100 is complete control
[11] = Preemergence, 500 g ai/ha, 0 to 100 scale (0 no effect, 100 complete control)
[12] = Postemergence, 31 g ai/ha, scale 0 to 100 (0 no effect, 100 complete control)
[13] = Postemergence, 62 g ai/ha, scale 0 to 100 (0 no effect, 100 complete control)
[14] = Postemergence, 125 g ai/ha, scale 0 to 100, 0 no effect, 100 complete control
[15] = Postemergence, 250 g ai/ha, scale 0 to 100
[16] = Preemergence, 31 g ai/ha, scale of 0 to 100, 0 is no effect, 100 is complete control
[17] = Preemergence, 62 g ai/ha, scale of 0 to 100, 0 is no effect, 100 is complete control
[18] = Preemergence, 125 g ai/ha, scale 0 to 100, 0 no effect, 100 complete control
[19] = Preemergence, 250 g ai/ha, scale 0 to 100, 0 no effect, 100 complete control
[20] = 31 g ai/ha, scale 0 to 100 (0 no effect, 100 complete control)
[21] = 62 g ai/ha, scale 0 to 100 (0 no effect, 100 complete control)
[22] = 125 g ai/ha, scale 0 to 100, 0 no effect, 100 complete control

SMILES: Cc1nn(-c2ccc(C(F)(F)F)c(F)c2)nc1Oc1ccnc(C(F)(F)F)c1 [Compound 148]
- Barnyardgrass plant response rating [1, 8]: 80
- Barnyardgrass plant response rating [1, 9]: 90
- Plant response rating, Barnyardgrass [1, 10]: 90
- Plant response rating, Barnyardgrass [1, 11]: 100
- Plant response rating, Velvetleaf [2, 8]: 100
- Plant response rating, Velvetleaf [2, 10]: 20
- Plant response rating, Velvetleaf [2, 11]: 70
- Corn plant response rating (corn (Zea mays); [8]): 20
- Corn plant response rating (corn (Zea mays); [9]): 40
- Plant response rating, Corn (corn (Zea mays); [10]): 10
- Plant response rating, Corn (corn (Zea mays); [11]): 20
- Plant response rating, Rice (0 to 100 scale, 0 is no effect, 100 is complete control) (rice (Oryza sativa)): 45
- Plant response rating, Blackgrass [3, 12]: 40
- Plant response rating, Blackgrass [3, 13]: 50
- Plant response rating, Blackgrass [3, 14]: 70
- Plant response rating, Blackgrass [3, 15]: 80
- Plant response rating, Blackgrass [3, 16]: 60
- Plant response rating, Blackgrass [3, 17]: 85
- Plant response rating, Blackgrass [3, 18]: 90
- Plant response rating, Blackgrass [3, 19]: 90
- Plant response rating, Wheat [4, 12]: 20
- Plant response rating, Wheat [4, 13]: 25
- Plant response rating, Wheat [4, 14]: 40
- Plant response rating, Wheat [4, 15]: 40
- Plant response rating, Wheat [4, 17]: 5
- Plant response rating, Wheat [4, 18]: 30
- Plant response rating, Wheat [4, 19]: 35
- Plant response rating, Oat, Wild (wild oat (Avena fatua); [12]): 15
- Plant response rating, Oat, Wild (wild oat (Avena fatua); [13]): 45
- Plant response rating, Oat, Wild (wild oat (Avena fatua); [14]): 80
- Plant response rating, Oat, Wild (wild oat (Avena fatua); [15]): 90
- Plant response rating, Oat, Wild (wild oat (Avena fatua); [16]): 35
- Plant response rating, Oat, Wild (wild oat (Avena fatua); [17]): 85
- Plant response rating, Oat, Wild (wild oat (Avena fatua); [18]): 85
- Plant response rating, Oat, Wild (wild oat (Avena fatua); [19]): 85
- Plant response rating, Johnsongrass [5, 12]: 20
- Plant response rating, Johnsongrass [5, 13]: 20
- Plant response rating, Johnsongrass [5, 14]: 55
- Plant response rating, Johnsongrass [5, 15]: 98
- Plant response rating, Johnsongrass [5, 16]: 15
- Plant response rating, Johnsongrass [5, 17]: 80
- Plant response rating, Johnsongrass [5, 18]: 98
- Plant response rating, Johnsongrass [5, 19]: 98
- Plant response rating, Pigweed [6, 12]: 65
- Plant response rating, Pigweed [6, 13]: 98
- Plant response rating, Pigweed [6, 14]: 98
- Plant response rating, Pigweed [6, 15]: 98
- Plant response rating, Pigweed [6, 16]: 100
- Plant response rating, Pigweed [6, 17]: 100
- Plant response rating, Pigweed [6, 18]: 100
- Plant response rating, Pigweed [6, 19]: 100
- Plant response rating, Chickweed [7, 20]: 75
- Plant response rating, Chickweed [7, 21]: 75
- Plant response rating, Chickweed [7, 22]: 90
- Plant response rating, Chickweed ([7]; 250 g ai/ha, scale 0 to 100): 98

SMILES: CCc1nn(-c2ccc(F)cc2)nc1Cc1ccnc(C(F)(F)F)c1 [Compound 154]
- Plant response rating, Barnyardgrass [1, 8]: 90
- Barnyardgrass plant response rating [1, 9]: 90
- Plant response rating, Barnyardgrass [1, 10]: 100
- Plant response rating, Barnyardgrass [1, 11]: 100
- Plant response rating, Velvetleaf [2, 8]: 100
- Velvetleaf plant response rating ([2]; Postemergence, 500 g ai/ha): 100
- Plant response rating, Velvetleaf [2, 10]: 30
- Plant response rating, Velvetleaf [2, 11]: 70
- Plant response rating, Corn (corn (Zea mays); [8]): 30
- Corn plant response rating (corn (Zea mays); [9]): 80
- Plant response rating, Corn (corn (Zea mays); [10]): 20
- Plant response rating, Corn (corn (Zea mays); [11]): 70
- Plant response rating, Rice (0 to 100 scale, 0 is no effect, 100 is complete control) (rice (Oryza sativa)): 45
- Plant response rating, Blackgrass [3, 12]: 15
- Plant response rating, Blackgrass [3, 13]: 35
- Plant response rating, Blackgrass [3, 14]: 55
- Plant response rating, Blackgrass [3, 15]: 70
- Plant response rating, Blackgrass [3, 16]: 90
- Plant response rating, Blackgrass [3, 17]: 90
- Plant response rating, Blackgrass [3, 18]: 90
- Plant response rating, Blackgrass [3, 19]: 90
- Plant response rating, Wheat [4, 12]: 10
- Plant response rating, Wheat [4, 13]: 15
- Plant response rating, Wheat [4, 14]: 20
- Plant response rating, Wheat [4, 15]: 30
- Plant response rating, Wheat [4, 17]: 5
- Plant response rating, Wheat [4, 18]: 5
- Plant response rating, Wheat [4, 19]: 55
- Plant response rating, Oat, Wild (wild oat (Avena fatua); [12]): 15
- Plant response rating, Oat, Wild (wild oat (Avena fatua); [13]): 35
- Plant response rating, Oat, Wild (wild oat (Avena fatua); [14]): 65
- Plant response rating, Oat, Wild (wild oat (Avena fatua); [15]): 65
- Plant response rating, Johnsongrass [5, 12]: 10
- Plant response rating, Johnsongrass [5, 13]: 30
- Plant response rating, Johnsongrass [5, 14]: 65
- Plant response rating, Johnsongrass [5, 15]: 85
- Plant response rating, Johnsongrass [5, 16]: 40
- Plant response rating, Johnsongrass [5, 17]: 40
- Plant response rating, Johnsongrass [5, 18]: 90
- Plant response rating, Johnsongrass [5, 19]: 95
- Plant response rating, Pigweed [6, 12]: 95
- Plant response rating, Pigweed [6, 13]: 95
- Plant response rating, Pigweed [6, 14]: 98
- Plant response rating, Pigweed [6, 15]: 98
- Plant response rating, Pigweed [6, 16]: 100
- Plant response rating, Pigweed [6, 17]: 100
- Plant response rating, Pigweed [6, 18]: 100
- Plant response rating, Pigweed [6, 19]: 100
- Plant response rating, Chickweed [7, 20]: 85
- Plant response rating, Chickweed [7, 21]: 85
- Plant response rating, Chickweed [7, 22]: 95
- Plant response rating, Chickweed ([7]; 250 g ai/ha, scale 0 to 100): 95

SMILES: CCc1nn(-c2ccc(C(F)(F)F)cc2)nc1Cc1ccnc(C(F)(F)F)c1 [Compound 155]
- Plant response rating, Barnyardgrass [1, 8]: 90
- Barnyardgrass plant response rating [1, 9]: 90
- Plant response rating, Barnyardgrass [1, 10]: 100
- Plant response rating, Barnyardgrass [1, 11]: 100
- Plant response rating, Velvetleaf [2, 8]: 100
- Velvetleaf plant response rating ([2]; Postemergence, 500 g ai/ha): 100
- Plant response rating, Corn (corn (Zea mays); [8]): 40
- Corn plant response rating (corn (Zea mays); [9]): 70
- Plant response rating, Corn (corn (Zea mays); [10]): 60
- Plant response rating, Corn (corn (Zea mays); [11]): 80
- Plant response rating, Rice (0 to 100 scale, 0 is no effect, 100 is complete control) (rice (Oryza sativa)): 50
- Plant response rating, Blackgrass [3, 12]: 40
- Plant response rating, Blackgrass [3, 13]: 70
- Plant response rating, Blackgrass [3, 14]: 85
- Plant response rating, Blackgrass [3, 15]: 90
- Plant response rating, Blackgrass [3, 16]: 90
- Plant response rating, Blackgrass [3, 17]: 90
- Plant response rating, Blackgrass [3, 18]: 90
- Plant response rating, Blackgrass [3, 19]: 90
- Plant response rating, Wheat [4, 12]: 15
- Plant response rating, Wheat [4, 13]: 30
- Plant response rating, Wheat [4, 14]: 35
- Plant response rating, Wheat [4, 15]: 40
- Plant response rating, Wheat [4, 17]: 5
- Plant response rating, Wheat [4, 18]: 10
- Plant response rating, Wheat [4, 19]: 35
- Plant response rating, Oat, Wild (wild oat (Avena fatua); [12]): 40
- Plant response rating, Oat, Wild (wild oat (Avena fatua); [13]): 45
- Plant response rating, Oat, Wild (wild oat (Avena fatua); [14]): 75
- Plant response rating, Oat, Wild (wild oat (Avena fatua); [15]): 90
- Plant response rating, Johnsongrass [5, 12]: 20
- Plant response rating, Johnsongrass [5, 13]: 80
- Plant response rating, Johnsongrass [5, 14]: 98
- Plant response rating, Johnsongrass [5, 15]: 98
- Plant response rating, Johnsongrass [5, 16]: 80
- Plant response rating, Johnsongrass [5, 17]: 90
- Plant response rating, Johnsongrass [5, 18]: 90
- Plant response rating, Johnsongrass [5, 19]: 95
- Plant response rating, Pigweed [6, 12]: 90
- Plant response rating, Pigweed [6, 13]: 90
- Plant response rating, Pigweed [6, 14]: 98
- Plant response rating, Pigweed [6, 15]: 100
- Plant response rating, Pigweed [6, 16]: 100
- Plant response rating, Pigweed [6, 17]: 100
- Plant response rating, Pigweed [6, 18]: 100
- Plant response rating, Pigweed [6, 19]: 100
- Plant response rating, Chickweed [7, 20]: 50
- Plant response rating, Chickweed [7, 21]: 70
- Plant response rating, Chickweed [7, 22]: 95
- Plant response rating, Chickweed ([7]; 250 g ai/ha, scale 0 to 100): 100
